Assays:
[1] = system: ECE; experiment: ECE activity in SH-SY5Y cells (fluorometric); assay type: cell-based; settings: 1 μM, compared to ethanol alone
Procedure: (§1) Aβ can be degraded in vivo by a number of enzymes, including insulin degrading enzyme (insulysin), neprilysin, and ECE (FIG. 12). Because PKC-ε overexpression has been reported to activate ECE (Choi et al., Proc. Natl. Acad. Sci. USA. 2006; 103: 8215-20), the effect of PKC activators on ECE was analyzed. Candidate PKC activators were added to either SH-SY5Y cells (Bryo—0.27 nM, DCP-LA—1 μM, and DHA-CP6 1 μM) or cultured neurons (DHA-CP6—1 μM, EPA-CP5— 1 μM, and AA-CP4— 1 μM), and grown on either 12- or 24-well plates. After various time periods, the cells were collected and ECE activity was measured fluorometrically. Results are shown below in FIG. 13. *, p<0.05; **, p<0.001.
PKCε overexpression has been reported to activate endothelin converting enzyme (ECE). The effect of PKC activators on ECE was measured here with Bryostatin, DCP-LA, and DHA-CP6. […] Protocol: Bryostatin (0.27 nM), DCP-LA (1 μM), DHACP6 (1 μM), EPA-CP5 (1 μM), AA-CP4 (1 μM), or ethanol alone were added to SH-SYSY cells growing on 12- or 24-well plates. After various periods of time, the cells were collected and ECE activity was measured fluorometrically as showing in FIG. 34 below (* p<0.05, ** p<0.001).

[2] = system: TA 100 cells & TA 1535 cells / TA 98 cells; experiment: AMES testing, overall result (mutagenic potential); assay type: cell-based
Description: (§2) The AMES test is a rapid screening of the mutagenic potential of chemical compounds. […] Between 50% and 70% of all known carcinogens test positive in the AMES test.

[3] = system: ECE; experiment: ECE activity in cultured neurons (fluorometric); assay type: cell-based; settings: 1 μM, compared to ethanol alone
Procedure: as §1

[4] = system: sAPP-α; experiment: sAPP-α secretion in an Alzheimer's disease cell line; assay type: cell-based, human; settings: 100 nM pretreatment, bryostatin 0.1 nM
Procedure: Protocol: An Alzheimer's disease cell line was incubated with bryostatin (0.1 nM), Benzolactam (0.1 nM or 1.0 μM), DMSO, pre-treated with staurosporin (100 nM) plus bryostatin (0.1 nM) for three hours. […] The graph units are relative to the vehicle, DMSO, alone (1).

[5] = Internal toxicity study: Clinical Chemistry Panel & Hematology Panel; assay type: in vivo; settings: in vivo
Procedure: Internal tests measuring various biological markers were performed 24 hours after administering a PKC activator (bryostatin, cyclopropanated arachidonic acid, DCPLA, and DHACP6) at 10× the therapeutic dose. The results are shown below in Tables 5-7.

[6] = system: TA 1535 Cells; experiment: AMES test, TA1535 cells; assay type: cell-based; settings: plate count
Description: as §2

[7] = system: Primary human neurons; experiment: Synaptogenicity in primary human neurons; assay type: cell-based; settings: 100 nM
Procedure: Protocol: Primary human neurons were treated with either DCPLA-methyl ester (100 nM) or bryostatin-1 (0.27 nM).

[8] = biological target: T1, PKC-ε (Homo sapiens, UniProt Q02156); experiment: Activation of purified PKC isozymes; assay type: biochemical; settings: purified PKC isozymes (9 ng), preincubated 5 minutes at room temperature
T1 sequence (Q02156 1-737): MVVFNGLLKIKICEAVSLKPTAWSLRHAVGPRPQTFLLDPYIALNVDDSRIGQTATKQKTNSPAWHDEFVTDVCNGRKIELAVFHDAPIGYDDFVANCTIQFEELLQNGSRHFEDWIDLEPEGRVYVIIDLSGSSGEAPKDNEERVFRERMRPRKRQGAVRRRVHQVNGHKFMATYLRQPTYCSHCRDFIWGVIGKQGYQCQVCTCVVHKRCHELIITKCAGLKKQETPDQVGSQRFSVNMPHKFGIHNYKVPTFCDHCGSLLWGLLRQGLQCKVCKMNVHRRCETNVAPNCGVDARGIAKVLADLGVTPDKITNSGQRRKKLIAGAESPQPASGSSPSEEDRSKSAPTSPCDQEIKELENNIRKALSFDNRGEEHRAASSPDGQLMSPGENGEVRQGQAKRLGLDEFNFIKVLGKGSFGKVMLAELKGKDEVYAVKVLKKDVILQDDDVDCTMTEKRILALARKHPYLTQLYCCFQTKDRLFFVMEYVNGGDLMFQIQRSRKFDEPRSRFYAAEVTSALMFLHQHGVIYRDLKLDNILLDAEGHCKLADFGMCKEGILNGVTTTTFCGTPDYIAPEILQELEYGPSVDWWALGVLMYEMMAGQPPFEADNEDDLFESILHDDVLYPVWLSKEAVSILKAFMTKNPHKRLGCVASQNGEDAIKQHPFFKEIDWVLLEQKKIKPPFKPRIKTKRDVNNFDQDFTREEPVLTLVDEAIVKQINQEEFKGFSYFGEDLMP
Procedure: Protocol: Purified PKC-α, βII, γ, δ, or ε (9 ng) was preincubated for 5 minutes at room temperature with the following PKC activators: (A) DHA-CP6, (B) EPA-CP5, (C) AA-CP4, (D) DCP-LA, (E) “other cyclopropaneated and epoxidized fatty acids, alcohols, and methyl esters.” followed by measurement of PKC activity as described under Experimental Procedures. Results are shown below in FIG. 6.

[9] = system: BDNF, NGF, NT-3, and GAP-43 mRNA; experiment: NTF mRNA expression in primary hippocampal neurons treated with Aβ (real time PCR); assay type: cell-based, rat; settings: 100 nM; 1 μM Aβ; co-treated 24 hours or treated 12 hours after Aβ
Procedure: Protocol: Primary hippocampal neurons were treated with control buffer (Untreated), Aβ (1 μM, oligomeric form), or 0.5 nM bryostatin for 24 hours. Some cells were co-treated with Aβ plus 0.5 nM bryostatin (Bryo+Aβ) for 24 hours, or pre-treated with Aβ for 12 hours, washed out, and then treated with bryostatin for additional 12 hours (Aβ+Bryo). Cells were then lysed and total RNA was isolated. Relative expression change of BDNF, NGF, NT-3, and GAP-43 mRNA was quantitatively measured from real time PCR using specific primers against rat BDNF, NGF, NT-3, and GAP-43 mRNA (FIG. 14). A representative gel image is also shown below in FIG. 14 (Mean+SEM, *P<0.05, Aβ compared with untreated; #P<0.05, Bryo+Aβ or Aβ+Bryo compared with Aβ only).
Test A—DCPLA (500 nM): Primary hippocampal neurons were treated with control buffer (Untreated), Aβ (1 μM, oligomer), or 500 nM DCPLA for 24 hours. Some cells were pre-treated with Aβ for 12 hr and then treated with 500 nM DCPLA for 12 hours (Aβ+DCP-LA), or co-treated with Aβ plus 500 nM DCP-LA (DCP-LA+Aβ) for 24 hours. Total RNA was isolated and relative expression change of BDNF, NGF, NT-3, and GAP-43 mRNA was quantitatively measured from real time RT-PCR using specific primers against rat BDNF, NGF, NT-3, and GAP-43 mRNA (FIG. 15). A representative gel image is also shown below in FIG. 15 (Mean+SEM of three independent experiments, *P<0.05, Aβ compared with untreated; #P<0.05, Aβ+Bryo or Bryo+Aβ compared with Aβ only).
Test B—DCPLA-methyl ester (100 nM): Primary hippocampal neurons were treated with control buffer (Untreated), 1 μM Aβ, or 100 nM DCP-LA ME (the methyl ester form of DCP-LA) for 24 hours. Some cells were pre-treated with Aβ for 12 hr and then treated with 100 nM DCP-LA ME for 12 hours (Aβ+DCP-LA ME), or co-treated with Aβ plus […] (DCP-LA ME+Aβ) for 24 hours. Total RNA was isolated and relative expression change of BDNF, NGF, NT-3, and GAP-43 mRNA was quantitatively measured from real time RT-PCR using specific primers against rat BDNF, NGF, NT-3, and GAP-43 mRNA (FIG. 16). […]

[10] = system: neurons in the CA1 hippocampal area; experiment: Apoptotic cell death (TUNEL) in hippocampal CA1 area after ischemic (2-VO)/hypoxic event; assay type: in vivo; settings: FIG. 11 legend; dose not given
Procedure: Protocol: Bryostatin-1 (15 μg/m^2) was administered through a tail vein (2 doses/week, for 10 doses), starting 24 hours after the end of the ischemic (2-VO)/hypoxic event. Staining for apoptotic cell death in the hippocampal CA1 area was performed 9 day after the last bryostatin-1 dose. […] (C) Quantification of TUNEL staining in stratum radiatum (n=3 animals; n=30 confocal images). Con=control; Bry=bryostatin-1; Isch=cerebral ischemia; ***, P<0.001.

[11] = system: Human primary neurons; experiment: ASPD-induced apoptosis in human primary neurons (Annexin-V Fluorescein); assay type: cell-based; settings: 100 nM with 100 nM ASPD, 24 hours
Procedure: Protocol: Human primary neurons were grown on chambered slides and treated with vehicle (Control), 100 nM ASPD, ASPD+DCPLA-ME (100 nM), ASPD+bryostatin 1 (0.27 nM) and ASPD+DCPLA-ME (100 nM) or ASPD+bryostatin 1 (0.27 nM) in presence of PKC-ε inhibitor. Following 24 hours of incubation, cells were stained using Annexin-V Fluorescein to detect apoptotic cells and results are shown in FIG. 10 below. […] Data are mean±SEM of three independent experiments. (*p<0.05;** p<0.005 and *** p<0.0005).

[12] = system: HCN-2 cells; experiment: Synaptogenesis in HCN-2 cells; assay type: cell-based, human; settings: 10 days
Procedure: FIG. 9 illustrates that activation of PKC-ε induces synaptogenesis in HCN-2 cells. The HCN-2 cell line was derived from cortical tissue removed from a patient undergoing hemispherectomy for intractable seizures associated with Rasmussen's encephalitis. The cells were treated with either DCPLA-methyl ester or bryostatin-1 for 10 days. […] Thus, PKC-ε activation can induce synaptogenesis in both embryonic and adult neuronal cells.

[13] = system: healthy brown Norway rats; experiment: Learning, memory and mushroom spine synapses in healthy rats, water maze training; assay type: in vivo; settings: PKCα inhibitor given with bryostatin and water maze training
Description: Protocol: Non-disease, healthy brown Norway rats (at 4-5 months old) were used in this study. […] (Nv=naîve controls; Sw=swim controls; Mz=water maze treatment; and Mz/Br=water maze treatment plus bryostatin treatment).

CCC1CC1CC1CC1CC1CC1CC1CC1CC1CC1CC1CC1CCC(=O)O (stereo not drawn) [DHA-CP6]
ECE activity [1]: sustained increase in ECE activity
AMES testing result [2]: not mutagenic
Result (Mutagenic Potential) [2]: Result: Not mutagenic, p > 0.05
ECE activity [3]: increase in ECE activity

CCC1CC1CC1CC1CC1CC1CC1CC1CC1CC1CCCC(=O)O (stereo not drawn) [EPA-CP5]
ECE activity [3]: increase in ECE activity

CN[C@@H]1C[C@H]2O[C@@](C)([C@@H]1OC)n1c3ccccc3c3c4c(c5c6ccccc6n2c5c31)C(=O)NC4 [staurosporin]
effect of pretreatment on bryostatin-enhanced sAPP-α secretion [4]: completely abolished the effect of bryostatin

cyclopropanated arachidonic acid
ALB (Albumin) [5]: 97.0 ± 2.6
ALP (Alkaline phosphatase) [5]: 93.8 ± 6.6
ALT (Alanine aminotransferase) [5]: 92.7 ± 5.4
AST (Aspartate aminotransferase) [5]: 107.0 ± 10.3
BA (Basophils) [5]: 400.0 ± 200.0
BUN (Blood urea nitrogen) [5]: 92.0 ± 6.7
CA (Calcium) [5]: 101.0 ± 3.0
CO2-LC (Bicarbonate) [5]: 100.0 ± 5.4
CREAT (Creatinine) [5]: 92.9 ± 5.2
EO (Eosinophils) [5]: 500.0 ± 250.0
GLU (Glucose) [5]: 84.8 ± 2.4
HCT (Hematocrit) [5]: 93.3 ± 2.3
Hb (Hemoglobin) [5]: 91.7 ± 6.0
K (Potassium) [5]: 82.9 ± 3.6
LY (Lymphocytes) [5]: 124.1 ± 34.4
MCH (Mean corpuscular hemoglobin) [5]: 103.0 ± 10.7
MCV (Mean corpuscular volume) [5]: 105.0 ± 2.0
MO (Monocytes) [5]: 66.6 ± 33.3
MPV (Mean platelet volume) [5]: 82.7 ± 3.7
NA (Sodium) [5]: 99.3 ± 0.6
NE (Neutrophils) [5]: 148.3 ± 51.7
PLT (Platelet count) [5]: 164.5 ± 3.7
RBC (Red Blood Cells) [5]: 89.2 ± 3.0
TBILI (Total bilirubin) [5]: 78.2 ± 6.5
TPROT (Total protein) [5]: 91.3 ± 1.4
WBC (White blood count) [5]: 136.0 ± 42.6
Negative ([6]; 0.05 mM, TA 1535 Cells): 93
Positive ([6]; 0.05 mM, TA 1535 Cells): 3
Negative ([6]; 0.125 mM, TA1535 Cells): 95
Positive ([6]; 0.125 mM, TA1535 Cells): 1
Negative ([6]; 0.5 mM, TA1535 Cells): 94
Positive ([6]; 0.5 mM, TA1535 Cells): 2
Negative ([6]; 1 mM, TA1535 Cells): 93
Positive ([6]; 1 mM, TA1535 Cells): 3
AMES testing result [2]: not mutagenic
Result (Mutagenic Potential) [2]: Result: Not mutagenic, p > 0.05

CCCCCC1CC1CC1CC1CCCCCCCC(=O)OC (stereo not drawn) [DCPLA-methyl ester]
co-localized staining of PSD-95 and synaptophysin in puncta (number of synapses) ([7]; 30 days): an increase in co-localized staining of PSD-95 and synaptophysin in puncta
survival, neuritic branching and connections ([7]; 40 days): improved survival with increased neuritic branching and connections
PKC-ε specificity versus PKC-α and PKC-δ [8]: PKC-ε specificity ±15% PKC-α and PKC-δ
NTF mRNA expression decreased by Aβ [9]: recovers NTF mRNA expression decreased by Aβ
apoptotic cell death in neurons in the CA1 hippocampal area [10]: prevents apoptotic cell death
protection against ASPD-induced apoptosis [11]: protected against ASPD-induced apoptosis
differentiation, neuronal branching and punctate colocalization of PSD-95 and synaptophysin [12]: significant differentiation with neuronal branching and increased punctate colocalization of PSD-95 and synaptophysin

CCC1CC1CC1CC1CC1CC1CC1CC1CC1CC1CC1CC1CCC(=O)OC (stereo not drawn) [DHA-CP6-methyl ester]
PKC-ε specificity versus PKC-α and PKC-δ [8]: PKC-ε specificity ±15% PKC-α and PKC-δ

Cn1cc(C2=C(c3cn(CCCSC(=N)N)c4ccccc34)C(=O)NC2=O)c2ccccc21 [Ro 31-8220]
effect on bryostatin-promoted induction of mushroom spine synapses [13]: inhibited
